One experiment addresses human ACC1 (Homo sapiens, UniProt Q13085). The experiment is described as follows: Acetyl CoA carboxylase (ACC) activity inhibition test, human ACC1. To be noted: 1 μmol/liter compound; control: DMSO well without test compound; read-out: Inhibition (%) by 1 μmol/liter Chemical, human ACC1. The format is biochemical. Here is the method:
(§1) A. Pharmacological Test Example (Acetyl CoA Carboxylase (ACC) Activity Inhibition Test)
(§2) Concretely, 0.8 μl of the diluted test compound is added to each well of 96-well assay plate (Perkin Elmer Opti Plate), then 40 μl of a substrate solution (50 mM Hepes sodium (pH 7.5), 2 mM DTT, 10 mM ATP, 500 μM acetyl CoA, 0.17 mM NaH[^14C]O3 (58 mCi/mmol, by Amersham), 8 mM NaHCO3) is added to each well, and 40 μL of an enzyme solution (1 to 2 nM human ACC1 or human ACC2, 50 mM Hepes sodium (pH 7.5), 2 mM DTT, 40 mM MgCl2, 40 mM tripotassium citrate 1 mg/ml fetal bovine serum albumin) is added thereto. Then, the upper side of the plate is sealed up, and the plate is incubated with gently stirring at 37° C. for 40 minutes. Next, 20 μl of 1N HCl is added to each well to stop the enzyme reaction, and the assay plate is stirred overnight to remove the unreacted NaH[^14C]O3. Next, 100 μl of a scintillator (Perkin Elmer's Microscinti 40) is added to each well and the plate is stirred, then the radioactivity of the fixed [^14C] is counted using a microplate scintillation counter (Perlin Elmer's Topcount), the radioactivity of which represents the enzyme activity in each well. The human ACC1 and human ACC2 enzyme-inhibition activities of the test compounds are calculated, based on the radioactivity of the well added by DMSO without test compound as a control.

The next experiment has as its target human ACC2 (Homo sapiens, UniProt O00763). Description: Acetyl CoA carboxylase (ACC) activity inhibition test, human ACC2. Conditions: 1 μmol/liter compound; control: DMSO well without test compound; read-out: Inhibition (%) by 1 μmol/liter Chemical, human ACC2. The class given is biochemical. On the procedure:
as §1, §2

Where a name gives a salt, the structure may show the parent alone.

human ACC2, sequence (O00763 whole entry): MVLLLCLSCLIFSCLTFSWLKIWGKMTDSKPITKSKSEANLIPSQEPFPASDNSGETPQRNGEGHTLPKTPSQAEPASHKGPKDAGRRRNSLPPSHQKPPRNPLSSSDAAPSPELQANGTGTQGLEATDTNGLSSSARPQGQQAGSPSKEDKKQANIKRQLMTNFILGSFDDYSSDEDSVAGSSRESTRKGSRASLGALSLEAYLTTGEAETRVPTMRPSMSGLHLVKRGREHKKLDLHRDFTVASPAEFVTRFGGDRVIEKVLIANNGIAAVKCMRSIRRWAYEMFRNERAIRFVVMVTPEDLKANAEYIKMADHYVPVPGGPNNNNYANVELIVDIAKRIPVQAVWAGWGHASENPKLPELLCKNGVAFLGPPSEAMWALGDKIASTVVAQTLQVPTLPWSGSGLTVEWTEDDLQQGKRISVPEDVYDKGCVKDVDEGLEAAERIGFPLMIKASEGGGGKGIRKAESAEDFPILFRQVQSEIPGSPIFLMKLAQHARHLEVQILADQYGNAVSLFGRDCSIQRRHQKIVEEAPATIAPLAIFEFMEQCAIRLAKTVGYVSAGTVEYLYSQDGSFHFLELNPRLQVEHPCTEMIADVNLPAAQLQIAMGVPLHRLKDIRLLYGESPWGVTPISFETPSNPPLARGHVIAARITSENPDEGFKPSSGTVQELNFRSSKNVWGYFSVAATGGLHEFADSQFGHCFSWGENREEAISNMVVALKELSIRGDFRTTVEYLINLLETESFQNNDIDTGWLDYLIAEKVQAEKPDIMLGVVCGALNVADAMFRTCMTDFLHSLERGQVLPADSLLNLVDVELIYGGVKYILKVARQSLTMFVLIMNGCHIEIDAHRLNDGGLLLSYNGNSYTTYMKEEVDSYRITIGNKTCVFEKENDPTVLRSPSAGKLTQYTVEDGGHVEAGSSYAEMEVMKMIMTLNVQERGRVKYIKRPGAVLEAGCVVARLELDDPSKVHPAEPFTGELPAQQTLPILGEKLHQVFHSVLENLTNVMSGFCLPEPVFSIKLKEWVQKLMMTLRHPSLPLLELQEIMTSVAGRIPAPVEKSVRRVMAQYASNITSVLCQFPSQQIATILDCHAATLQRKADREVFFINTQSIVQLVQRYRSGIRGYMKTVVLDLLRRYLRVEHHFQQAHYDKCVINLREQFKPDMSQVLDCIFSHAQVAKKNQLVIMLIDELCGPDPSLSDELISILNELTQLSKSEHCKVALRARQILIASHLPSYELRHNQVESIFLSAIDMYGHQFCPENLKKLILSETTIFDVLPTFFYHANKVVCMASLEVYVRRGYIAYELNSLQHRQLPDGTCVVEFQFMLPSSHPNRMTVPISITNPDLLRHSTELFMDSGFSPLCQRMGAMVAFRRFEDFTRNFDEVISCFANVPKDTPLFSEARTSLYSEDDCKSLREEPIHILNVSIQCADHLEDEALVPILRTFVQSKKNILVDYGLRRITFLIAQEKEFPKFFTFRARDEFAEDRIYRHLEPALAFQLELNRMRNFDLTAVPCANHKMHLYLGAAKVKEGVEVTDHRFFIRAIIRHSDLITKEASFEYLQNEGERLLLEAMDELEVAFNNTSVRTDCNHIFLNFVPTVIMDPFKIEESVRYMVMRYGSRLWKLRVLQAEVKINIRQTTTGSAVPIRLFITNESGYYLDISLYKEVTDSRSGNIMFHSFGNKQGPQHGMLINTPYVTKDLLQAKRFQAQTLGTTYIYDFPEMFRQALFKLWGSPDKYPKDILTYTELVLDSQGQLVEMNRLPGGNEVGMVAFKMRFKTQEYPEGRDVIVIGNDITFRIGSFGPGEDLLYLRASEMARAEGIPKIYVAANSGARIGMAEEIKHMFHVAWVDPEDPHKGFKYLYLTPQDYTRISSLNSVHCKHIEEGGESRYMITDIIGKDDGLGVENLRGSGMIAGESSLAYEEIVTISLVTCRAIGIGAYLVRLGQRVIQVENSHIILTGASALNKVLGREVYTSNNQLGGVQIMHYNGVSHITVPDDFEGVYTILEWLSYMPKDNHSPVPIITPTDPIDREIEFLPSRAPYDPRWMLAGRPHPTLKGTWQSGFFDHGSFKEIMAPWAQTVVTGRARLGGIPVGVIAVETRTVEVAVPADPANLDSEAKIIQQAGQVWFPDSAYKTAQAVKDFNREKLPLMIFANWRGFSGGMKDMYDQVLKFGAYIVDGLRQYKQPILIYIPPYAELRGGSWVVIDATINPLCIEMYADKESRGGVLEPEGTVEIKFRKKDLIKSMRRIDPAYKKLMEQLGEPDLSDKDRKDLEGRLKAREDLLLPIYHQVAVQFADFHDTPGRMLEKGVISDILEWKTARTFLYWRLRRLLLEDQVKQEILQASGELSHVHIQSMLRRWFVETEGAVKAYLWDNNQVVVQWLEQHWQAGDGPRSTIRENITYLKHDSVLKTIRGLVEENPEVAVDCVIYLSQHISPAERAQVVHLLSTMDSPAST

Consider `COc1cc(C(=O)N2CCC3(CC2)CC(=O)c2cc(NC(C)=O)ccc2O3)nc2ccccc12` [Example 2, N-{1′-[(4-methoxyquinolin-2-yl)carbonyl]-4-oxospiro[chroman-2,4′-piperidin]-6-yl}acetamide hydrochloride], for which the inhibition at 1 µM at human ACC1 was determined as 82%; on human ACC2, 85%.
On the same counts, the results for `COc1cc(C(=O)N2CCC3(CC2)CC(=O)c2cc(NC(C)=O)ccc2O3)nc2c(OC)cccc12` [Example 3, N-{1′-[(4,8-dimethoxyquinolin-2-yl)carbonyl]-4-oxospiro[chroman-2,4′-piperidin]-6-yl}acetamide] are 100% and 98%.
For `COc1cc(C(=O)N2CCC3(CC2)CC(=O)c2ccccc2O3)nc2c(OC)cccc12` [Example 4, 1′-[(4,8-dimethoxyquinolin-2-yl)carbonyl]spiro[chroman-2,4′-piperidin]-4-one], the inhibition at 1 µM at human ACC1 amounted to 93%; on human ACC2, 96%.
On to `COc1cc(C(=O)N2CCC3(CC2)CC(=O)c2cc(N)ccc2O3)nc2c(OC)cccc12` [Example 5, 6-amino-1′-[(4,8-dimethoxyquinolin-2-yl)carbonyl]spiro[chroman-2,4′-piperidin]-4-one], for which the inhibition at 1 µM on human ACC1 and at human ACC2 was 97% in each case.
With `COc1cc(C(=O)N2CCC3(CC2)CC(=O)c2cc(Nc4ccnn4C)ccc2O3)nc2c(OC)cccc12` [Example 10, 1′-[(4,8-dimethoxyquinolin-2-yl)carbonyl]-6-[(1-methyl-1H-pyrazol-5-yl)amino]spiro[chroman-2,4′-piperidin]-4-one], the inhibition at 1 µM is 100% on human ACC1 and 99% on human ACC2.
The corresponding values for `COc1cc(C(=O)N2CCC3(CC2)CC(=O)c2cc(-c4nnn[nH]4)ccc2O3)nc2c(OC)cccc12` [Example 18, 1′-[(4,8-dimethoxyquinolin-2-yl)carbonyl]-6-(1H-tetrazol-5-yl)spiro[chroman-2,4′-piperidin]-4-one sodium salt] are 97% and 99%.
Turning to `CCOc1cc(C(=O)N2CCC3(CC2)CC(=O)c2cc(-c4nnn[nH]4)ccc2O3)nc2c(C3CC3)nccc12` [Example 21, 1′-[(8-cyclopropyl-4-ethoxy-1.7-naphthyridin-2-yl)carbonyl]-6-(1H-tetrazol-5-yl)spiro[chroman-2,4′-piperidin]-4-one], the results for the inhibition at 1 µM on human ACC1 and at human ACC2 were 99% and 97%, respectively.
For the molecule `COc1cc(C(=O)N2CCC3(CC2)CC(=O)c2cc(-c4nc[nH]n4)ccc2O3)nc2c(OC)cccc12` [Example 27, 1′-[(4,8-dimethoxyquinolin-2-yl)carbonyl]-6-(1H-1,2,4-triazol-3-yl)-spiro[chroman-2,4′-piperidin]-4-one], the inhibition at 1 µM on human ACC1 came out at 101%; at human ACC2, 100%.

The record behind these values is US7410976B2, “Spirochromanone derivatives” (Merck & Co., Inc., priority 2005, dated 2008).
